Laboratory results from US6642274B1, “Methods and compositions for preventing and treating prostate disorders” (priority 1999, dated 2003).

Legend:
[1] = tested on: cancer cell cultures; experiment: Cytostatic or cytotoxic effects on cancer cell cultures; assay type: cell-based; settings: after hydrolysis of alpha-tocopherol succinate into alpha-tocopherol
Source text: (§1) Szarka reviews the strategy of chemoprevention as a possible method of blocking the development of cancers in humans (C F Szarka et al “Chemoprevention of cancer” Curr Probl Cancer 1994 January-February; 18(1):6-79).

[2] = tested on: cancer cell cultures; settings: cited from earlier work
[3] = in vivo
Source text: as §1

[4] = rapid hydrolysis by serum and tissue esterases into alpha-tocopherol; cited from earlier work
[5] = tested on: 5alpha-reductase; settings: after daily dosing with 5 milligrams; cited from earlier work
[6] = tested on: BPH; settings: cited from earlier work

Cc1c(C)c2c(c(C)c1O)CC[C@@](C)(CCC[C@H](C)CCC[C@H](C)CCCC(C)C)O2 [alpha-tocopherol]
reduction in potency relative to alpha-tocopherol succinate [1]: 50 fold | concentration necessary to demonstrate cytostatic or cytotoxic effects [2]: 0.5 millimolar | factor by which minimal target tissue concentration exceeds the maximum levels possible in oral administration [3]: 7-10 fold

Cc1c(C)c2c(c(C)c1OC(=O)CCC(=O)O)CC[C@@](C)(CCC[C@H](C)CCC[C@H](C)CCCC(C)C)O2 [alpha-tocopherol succinate]
levels available systemically after oral administration [4]: undetectable levels | concentration necessary to demonstrate cytostatic or cytotoxic effects [2]: 10 µM

CC(C)(C)NC(=O)[C@H]1CC[C@H]2[C@@H]3CC[C@H]4NC(=O)C=C[C@]4(C)[C@H]3CC[C@]12C [finasteride]
reduction in serum dihydrotestosterone levels [5]: 70% | side effects in men ([6]; oral administration): erectile dysfunction, decreased volume of ejaculate and loss of libido | increase in peak urinary flow rates ([6]; two large clinical studies, finasteride treatment): ~1.6 mls/second

O=C1O[C@H]([C@@H](O)CO)C(O)=C1O [ascorbic acid]
concentration necessary to demonstrate cytostatic or cytotoxic effects [2]: 1-2 millimolar | factor by which minimal target tissue concentration exceeds the maximum levels possible in oral administration [3]: 10-20 fold
